Source: paper PMC6472337, “L amino acid transporter structure and molecular bases for the asymmetry of substrate interaction” (Nature Communications, 2019)
Substitutions are numbered along the chain they refer to. Several values for one entry are separate records, joined by “and”; a condition that tells them apart may be missing. Identical values can stand only once. Like-named read-outs stand apart in the source and are kept apart here.

Experiments:
[1] = target: T1, hAsc-1 S325A mutant (Homo sapiens, UniProt Q9NS82, S325A); experiment: [3H]L-alanine uptake in HeLa cells, hAsc-1 S325A; type: cell-based; settings: WT = 100, n=1-3 and mean
T1 construct: expressed in transfected cells; host or cells: HeLa
T1 sequence (Q9NS82 1-523 S325A): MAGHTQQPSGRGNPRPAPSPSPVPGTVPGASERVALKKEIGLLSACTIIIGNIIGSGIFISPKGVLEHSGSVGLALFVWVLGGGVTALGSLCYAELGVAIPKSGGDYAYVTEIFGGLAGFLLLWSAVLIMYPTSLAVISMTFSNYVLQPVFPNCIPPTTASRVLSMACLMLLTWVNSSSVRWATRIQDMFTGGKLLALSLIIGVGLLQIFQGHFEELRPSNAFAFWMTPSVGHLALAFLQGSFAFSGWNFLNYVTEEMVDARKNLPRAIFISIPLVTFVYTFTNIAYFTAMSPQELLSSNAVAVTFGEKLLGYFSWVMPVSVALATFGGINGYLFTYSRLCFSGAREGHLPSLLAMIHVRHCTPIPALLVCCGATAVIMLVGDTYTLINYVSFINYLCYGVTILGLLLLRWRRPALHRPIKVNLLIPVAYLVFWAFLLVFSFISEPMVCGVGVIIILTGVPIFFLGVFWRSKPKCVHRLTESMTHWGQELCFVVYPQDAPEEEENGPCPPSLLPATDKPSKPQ
T1 sequence (P08195 1-529 partner): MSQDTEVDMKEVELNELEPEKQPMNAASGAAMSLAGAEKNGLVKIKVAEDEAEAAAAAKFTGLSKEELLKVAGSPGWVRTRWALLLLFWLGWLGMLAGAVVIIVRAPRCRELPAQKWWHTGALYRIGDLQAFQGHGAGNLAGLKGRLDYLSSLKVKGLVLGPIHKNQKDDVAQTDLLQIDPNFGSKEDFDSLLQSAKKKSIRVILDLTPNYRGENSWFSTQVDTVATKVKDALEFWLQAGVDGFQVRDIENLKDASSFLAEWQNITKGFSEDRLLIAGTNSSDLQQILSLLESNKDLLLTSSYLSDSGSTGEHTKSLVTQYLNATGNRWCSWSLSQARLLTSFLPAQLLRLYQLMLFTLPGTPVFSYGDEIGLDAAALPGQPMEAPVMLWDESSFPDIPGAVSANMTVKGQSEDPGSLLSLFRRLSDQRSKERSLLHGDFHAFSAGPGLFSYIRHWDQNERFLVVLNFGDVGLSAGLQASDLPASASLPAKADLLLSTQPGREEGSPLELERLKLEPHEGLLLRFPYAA
Text: All mutations were verified by sequencing.

[2] = target: BasC K154A mutant; experiment: Thermostability-based L-alanine binding assay, K154A; set-up: species or system Carnobacterium sp AT7; settings: for Kd K154A binding curve, normalized signal: n=1-3
Method: (§1) GFP-fused BasC proteins purified in DM were incubated for 10 min at 4–60 °C (Y236F and K154A mutants) or 4–70 °C (wild-type). In total, 200 µl of 2 mg ml^−1 protein was used for each temperature point. Protein was then centrifuged at 186,000 × g for 30 min. […] Fractions (200 µl) were collected and measured for GFP fluorescence. The peak heights were normalized to those of samples incubated at 4 °C and were fit to the Hill equation using the GraphPad Prism 4 program (GraphPad Software Inc., San Diego, CA). Melting temperatures (Tm) were determined by fitting the curves to a sigmoidal dose-response equation, as previously described.
(§2) BasC-GFP proteins were then incubated at the calculated Tm for 10 min and centrifuged at 186,000 × g for 30 min. […] Binding affinities were determined by fitting the curves to a sigmoidal dose-response equation.

[3] = target: T2, hAsc-1 K194A mutant (Homo sapiens, UniProt Q9NS82, K194A); experiment: [3H]L-alanine uptake in HeLa cells, hAsc-1 K194A
T2 sequence (Q9NS82 1-523 K194A): T1 sequence (Q9NS82 1-523 S325A) with K194A, A325S
T2 sequence (P08195 1-529 partner): T1 sequence (P08195 1-529 partner)

[4] = target: BasC Y236F mutant; experiment: Thermostability-based L-alanine binding assay, Y236F; set-up: species or system Carnobacterium sp AT7; settings: for Kd Y236F binding curve, normalized signal: n=1-3
Method: as §1, §2

[5] = target: wild-type BasC; experiment: Thermostability-based L-alanine binding assay (GFP-fused protein, SEC); set-up: species or system Carnobacterium sp AT7; settings: for Kd Wild-type binding curve, normalized signal: n=1-3
Method: as §1, §2

C[C@H](N)C(=O)O [L-alanine]
transport of 10 µM [3H]L-alanine normalized to wild-type [1]: 135.06 and 126.01 and 130.11 | transport of 10 µM [3H]L-alanine normalized to wild-type ([1]; mean): 130.39 | Kd ([2]; K154A, incubated at Tm, L-alanine 0–200 mM, read-out: KD (apparent, thermostability-based)): 61.4 ± 7.3 mM | Kd K154A binding curve, normalized signal ([2]; [L-Alanine] 6.25 mM): 14.092 and 14.380 and 15.376 | Kd K154A binding curve, normalized signal ([2]; [L-Alanine] 12.50 mM): 15.845 and 21.520 and 16.121 | Kd K154A binding curve, normalized signal ([2]; [L-Alanine] 25 mM): 35.951 and 29.574 and 35.797 | Kd K154A binding curve, normalized signal ([2]; [L-Alanine] 50 mM): 50.837 and 57.901 and 51.971 | Kd K154A binding curve, normalized signal ([2]; [L-Alanine] 100 mM): 91.898 and 90.173 and 89.225 | Kd K154A binding curve, normalized signal ([2]; [L-Alanine] 150 mM): 95.225 and 92.554 and 88.658 | Kd K154A binding curve, normalized signal ([2]; [L-Alanine] 200 mM): 100.000 | Kd ([2]; individual experiments n=1, n=2, n=3, read-out: Apparent Kd K154A): 55.6 mM and 58.9 mM and 69.7 mM | Kd ([2]; mean of n=3, read-out: Apparent Kd K154A, mean): 61.4 mM | reduction of Vmax vs. wild-type [3]: ~ 10 fold | reduction of external apparent affinity vs. wild-type [3]: ~ 10 fold | Kd ([4]; Y236F, incubated at Tm, L-alanine 0–200 mM, read-out: KD (apparent, thermostability-based)): 42.3 ± 5 mM | Kd Y236F binding curve, normalized signal ([4]; [L-Alanine] 6.25 mM): 22.582 and 17.176 and 16.654 | Kd Y236F binding curve, normalized signal ([4]; [L-Alanine] 12.50 mM): 33.547 and 26.076 and 17.575 | Kd Y236F binding curve, normalized signal ([4]; [L-Alanine] 25 mM): 44.758 and 42.547 and 31.773 | Kd Y236F binding curve, normalized signal ([4]; [L-Alanine] 50 mM): 72.230 and 70.914 and 57.702 | Kd Y236F binding curve, normalized signal ([4]; [L-Alanine] 100 mM): 89.225 and 96.379 and 94.240 | Kd Y236F binding curve, normalized signal ([4]; [L-Alanine] 150 mM): 94.446 and 95.445 and 86.456 | Kd Y236F binding curve, normalized signal ([4]; [L-Alanine] 200 mM): 100.000 | Kd ([4]; individual experiments n=1, n=2, n=3, read-out: Apparent Kd Y236F): 44.1 mM and 36.7 mM and 46.2 mM | Kd ([4]; mean of n=3, read-out: Apparent Kd Y236F, mean): 42.3 mM | Kd ([5]; WT BasC, incubated at Tm, L-alanine 0–200 mM, read-out: KD (apparent, thermostability-based)): 34.5 ± 2.1 mM | Kd Wild-type binding curve, normalized signal ([5]; [L-Alanine] 0.36 mM): 4.340 and 4.304 and 4.417 | Kd Wild-type binding curve, normalized signal ([5]; [L-Alanine] 1.50 mM): 6.609 and 6.614 and 8.554 | Kd Wild-type binding curve, normalized signal ([5]; [L-Alanine] 3.13 mM): 10.226 and 10.310 and 9.554 | Kd Wild-type binding curve, normalized signal ([5]; [L-Alanine] 6.25 mM): 16.111 and 16.814 and 19.554 | Kd Wild-type binding curve, normalized signal ([5]; [L-Alanine] 12.50 mM): 30.546 and 30.584 and 35.221 | Kd Wild-type binding curve, normalized signal ([5]; [L-Alanine] 25 mM): 47.282 and 48.296 and 50.554 | Kd Wild-type binding curve, normalized signal ([5]; [L-Alanine] 50 mM): 70.152 and 71.030 and 72.225 | Kd Wild-type binding curve, normalized signal ([5]; [L-Alanine] 100 mM): 82.376 and 81.876 and 86.554 | Kd Wild-type binding curve, normalized signal ([5]; [L-Alanine] 150 mM): 97.076 and 84.776 and 95.225 | Kd Wild-type binding curve, normalized signal ([5]; [L-Alanine] 200 mM): 100.000 | Kd ([5]; individual experiments n=1, n=2, n=3, read-out: Apparent Kd Wild type): 35.9 mM and 35.4 mM and 32.2 mM | Kd ([5]; mean of n=3, read-out: Apparent Kd Wild type, mean): 34.5 mM
